According to ChEMBL document CHEMBL5321216, “Discovery of bipyridine amide derivatives targeting pRXRα-PLK1 interaction for anticancer therapy” (Eur J Med Chem, 2023):
Active and inactive are the calls of the source. No cut-off for these calls is given here.

Experiments:
HepG2 = assay: Antiproliferative activity against human HepG2 cells assessed as cell viability rate at 5 uM incubated for 72 hrs by MTT assay relative to control; type: functional
MCF7 = assay: Antiproliferative activity against human MCF7 cells assessed as inhibition of cell proliferation incubated for 72 hrs by MTT assay; type: functional, cell-based; conditions: MCF7, 72 h
NCI-H460 = assay: Antiproliferative activity against human NCI-H460 cells assessed as inhibition of cell proliferation incubated for 72 hrs by MTT assay; type: functional, cell-based; conditions: NCI-H460, 72 h
HeLa = assay: Antiproliferative activity against human HeLa cells assessed as inhibition of cell proliferation incubated for 72 hrs by MTT assay; type: functional, cell-based
[1] = Cytotoxicity against human HaCaT cells assessed as inhibition of cell proliferation incubated for 72 hrs by MTT assay; type: toxicity, cell-based
[2] = Selectivity index, ratio of IC50 for human NCI-H460 cells to IC50 for human MDA-MB-231 cells; type: functional
[3] = Selectivity index, ratio of IC50 for human HepG2 cells to IC50 for human MDA-MB-231 cells; type: functional
A549 [4] = assay: Induction of cell cycle arrest in RXRalpha knockout human A549 cells assessed as accumulation of cells at G1 phase at 125 nM incubated for 12 hrs by DAPI staining based flow cytometry analysis (reference value: 52.29 %); type: functional
A549 [5] = assay: Induction of cell cycle arrest in wild type human A549 cells assessed as accumulation of cells at G1 phase at 125 nM incubated for 12 hrs by DAPI staining based flow cytometry analysis (reference value: 36.89 %); type: functional
MDA-MB-231 [6] = assay: Inhibition of colony formation in human MDA-MB-231 cells at 62.5 nM incubated for 48 hrs followed by replacement with normal culture medium and measured after […] by crystal violet staining based assay relative to control; type: functional
MDA-MB-231 [7] = assay: Induction of apoptosis in human MDA-MB-231 cells assessed as reduction in Mcl-1 protein expression measured after 24 hrs by Western blot analysis; type: functional, cell-based; conditions: dose 7.8-500 nM
A549 [8] = assay: Induction of apoptosis in human A549 cells assessed as dead cells at 250 nM incubated for 24 hrs by annexin V-FITC/PI staining based flow cytometry analysis (reference value: 0.75%); type: functional
A549 [9] = assay: Induction of apoptosis in human A549 cells assessed as late apoptotic cells at 250 nM incubated for 24 hrs by annexin V-FITC/PI staining based flow cytometry analysis (reference value: 5.28%); type: functional
A549 [10] = assay: Induction of apoptosis in human A549 cells assessed as live cells at 125 nM incubated for 24 hrs by annexin V-FITC/PI staining based flow cytometry analysis (reference value: 93.2%); type: functional
A549 [11] = assay: Induction of apoptosis in human A549 cells assessed as live cells at 31.25 nM incubated for 24 hrs by annexin V-FITC/PI staining based flow cytometry analysis (reference value: 93.2%); type: functional
MDA-MB-231 [12] = assay: Induction of cell cycle arrest in human MDA-MB-231 cells assessed as accumulation of cells at G2 phase at 125 nM incubated for 12 hrs by flow cytometry analysis (reference value: 15.91%); type: functional
A549 [13] = assay: Induction of cell cycle arrest in human A549 cells assessed as accumulation of cells at G1 phase at 31.25 nM incubated for 12 hrs by flow cytometry analysis (reference value: 59.57%); type: functional
A549 [14] = assay: Induction of cell cycle arrest in human A549 cells assessed as accumulation of cells at G1 phase at 125 nM incubated for 12 hrs by flow cytometry analysis (reference value: 59.57%); type: functional
MDA-MB-231 [15] = assay: Induction of apoptosis in human MDA-MB-231 cells assessed as early apoptotic cells at 31.25 nM incubated for 24 hrs by annexin V-FITC/PI staining based flow cytometry analysis (reference value: 2.03%); type: functional
MDA-MB-231 [16] = assay: Induction of apoptosis in human MDA-MB-231 cells assessed as dead cells at 31.25 nM incubated for 24 hrs by annexin V-FITC/PI staining based flow cytometry analysis (reference value: 0.69%); type: functional
MDA-MB-231 [17] = assay: Induction of apoptosis in human MDA-MB-231 cells assessed as late apoptotic cells at 62.5 nM incubated for 24 hrs by annexin V-FITC/PI staining based flow cytometry analysis (reference value: 5.93%); type: functional
MDA-MB-231 [18] = assay: Induction of apoptosis in human MDA-MB-231 cells assessed as live cells at 125 nM incubated for 24 hrs by annexin V-FITC/PI staining based flow cytometry analysis (reference value: 91.3%); type: functional
MDA-MB-231 [19] = assay: Induction of apoptosis in human MDA-MB-231 cells assessed as dead cells at 125 nM incubated for 24 hrs by annexin V-FITC/PI staining based flow cytometry analysis (reference value: 0.69%); type: functional
MDA-MB-231 [20] = assay: Induction of apoptosis in human MDA-MB-231 cells assessed as live cells at 250 nM incubated for 24 hrs by annexin V-FITC/PI staining based flow cytometry analysis (reference value: 91.3%); type: functional
MDA-MB-231 [21] = assay: Induction of apoptosis in human MDA-MB-231 cells assessed as early apoptotic cells at 250 nM incubated for 24 hrs by annexin V-FITC/PI staining based flow cytometry analysis (reference value: 2.03%); type: functional
[22] = Elimination half life in Sprague-Dawley rat at 25 mg/kg, ip measured for 48 hrs by LC-MS/MS analysis; type: ADME, organism-based; conditions: in vivo, read-out: beta t1/2 (converted)
[23] = Toxicity in BALB/c mouse xenografted with human MDA-MB-231 cells assessed as reduction in body weight at 12.5 to 25 mg/kg/day, ip administered for 15 days; type: organism-based; conditions: in vivo, 360 h, dose 12.5-25 mg/kg/day, time 15 day
MDA-MB-231 [24] = assay: Antitumor activity against human MDA-MB-231 cells xenografted in BALB/c nude mouse assessed as reduction in tumor volume at 25 mg/kg/day, ip administered for 15 days and measured once a day; type: functional, organism-based; conditions: time 15.0 day
MDA-MB-231 [25] = assay: Antitumor activity against human MDA-MB-231 cells xenografted in BALB/c nude mouse assessed as nuclear shrinkage in tumor at 25 mg/kg/day, ip administered for 15 days by immunohistochemical analysis; type: functional, organism-based; conditions: time 15.0 day
MDA-MB-231 [26] = assay: Antitumor activity against human MDA-MB-231 cells xenografted in BALB/c nude mouse assessed as inhibition of tumor growth by measuring mitotic arrest at 12.5 to 25 mg/kg/day, ip administered for 15 days; type: functional, organism-based; conditions: dose 12.5-25 mg/kg/day, time 15.0 day
[27] = Toxicity in BALB/c mouse xenografted with human MDA-MB-231 cells assessed as heart damage at 25 mg/kg/day, ip administered for 15 days by H and E staining based analysis; type: organism-based; conditions: in vivo, 360 h, time 15 day
[28] = Toxicity in BALB/c mouse xenografted with human MDA-MB-231 cells assessed as lung damage at 25 mg/kg/day, ip administered for 15 days by H and E staining based analysis; type: organism-based; conditions: in vivo, 360 h, time 15 day
[29] = Toxicity in BALB/c mouse xenografted with human MDA-MB-231 cells assessed as kidney damage at 25 mg/kg/day, ip administered for 15 days by H and E staining based analysis; type: organism-based; conditions: in vivo, 360 h, time 15 day
MDA-MB-231 [30] = assay: Induction of mitotic arrest in human MDA-MB-231 cells assessed as chromosome misalignment at 62.5 nM incubated for 12 hrs by alpha-tubulin/DAPI staining based confocal microscopic analysis; type: functional, cell-based

## O=C(/C=C/c1ccccc1)Nc1cc(-c2ccnc(N3CCC(CO)CC3)c2)ccn1
HepG2
  Activity: 42.38%
MCF7
  IC50: 2340 nM
NCI-H460
  IC50: 253 nM
HeLa
  IC50: 77 nM
[1]
  IC50 at 72 h: 51 nM
[2]
  Ratio IC50: 15.81
[3]
  Ratio IC50: 4.81
A549 [4]
  Activity: 17.83%
A549 [5]
  Activity: 2.24%
MDA-MB-231 [6]
  inhibition at 0.0625 µM: 100%
MDA-MB-231 [7]
  Activity: Dose-Dependent Effect
A549 [8]
  Activity: 2.36%
A549 [9]
  Activity: 21.4%
A549 [10]
  Activity: 52%
A549 [11]
  Activity: 70.9%
MDA-MB-231 [12]
  Activity: 85.88%
A549 [13]
  Activity: 58.84%
A549 [14]
  Activity: 16.45%
MDA-MB-231 [15]
  Activity: 2.24%
MDA-MB-231 [16]
  Activity: 0.93%
MDA-MB-231 [17]
  Activity: 15.2%
MDA-MB-231 [18]
  Activity: 66.9%
MDA-MB-231 [19]
  Activity: 2.78%
MDA-MB-231 [20]
  Activity: 57.9%
MDA-MB-231 [21]
  Activity: 20.2%
[22]
  half-life: 2.23 h
[23]
  Activity: Non-Toxic
MDA-MB-231 [24]
  Activity: Active
MDA-MB-231 [25]
  Activity: Active
MDA-MB-231 [26]
  Activity: Active
[27]
  Activity: Non-Toxic
[28]
  Activity: Non-Toxic
[29]
  Activity: Non-Toxic
MDA-MB-231 [30]
  Activity: Active
